Experiments:
[1] = test system: castrated immature male Syrian golden hamsters; assay: Systemic antiandrogenic and glucocorticoid activity, subcutaneous, with testosterone propionate (Table IV); type: in vivo; conditions: mean, n=8
Procedure: A solution of the compound of Formula I in cottonseed oil was administered subcutaneously at 1 ml./kg. to castrated immature male Syrian golden hamsters having a mean initial body weight of 79 g. for 14 consecutive days concurrently with testosterone propionate. On the day following the last medication the hamsters were killed, the flank organ parameters were determined and the weights of seminal vesicles, adrenals and thymus glands were obtained.

[2] = test system: hair on the back of mature male Syrian golden hamsters; assay: Reduction of hair regrowth on clipped back of hamsters; type: in vivo; conditions: 200 microliters on 9 cm2, 30 daily applications, vehicle 323±49 mg
Source text: The hair on the back of mature male Syrian golden hamsters having a mean initial body weight of 107 g. (7 hamsters per group) was removed with electric clippers. The vehicle (200 microliters of ethanol) or the test solution (0.02% or 0.1% of the compound of Formula I in ethanol) was pipetted slowly to cover the entire clipped area (9 cm.^2). After 30 daily applications, the hair was clipped from the same area and the hair clippings were collected and weighed in order to measure hair regrowth. The hair weights averaged 119±15 and 109±17 mg. for hamsters treated with 0.02% and 0.1% of the compound of Formula I, respectively, compared to 323±49 mg. for vehicle-treated hamsters.

[3] = test system: male hamster flank organ hair; assay: Rate of flank organ hair growth by 35S-cystine pulse labelling (Table V); type: in vivo, Syrian golden hamsters; conditions: right flank organ, 5 microliters 0.1% solution daily for 14 days; mean ± SE, n=8
Procedure: In a second test all hair was clipped from the flank organs of 8 male Syrian golden hamsters having a mean body weight of 116 g. on the first day of the study. The hamsters were medicated daily with 5 microliters of ethanol on the left flank organ and 5 microliters of a 0.1% solution of the compound of Formula I in ethanol on the right flank organ for 14 consecutive days. On days 4, 8 and 12 each hamster was injected subcutaneously with 30 microcuries of ^35 S-cystine (0.72 nmole) dissolved in ethanol-saline (0.1 ml., 1:9, v/v). On day 15 several hairs were plucked from each flank organ. The hairs were exposed to X-ray film for 4 weeks. The distances between the radioactive sites and the hair resulting from the three pulses of ^35 S-cystine were measured and the daily rate of hair-growth was determined. As shown by Table V the rate of hair growth was reduced after 12 days of treatment.

[4] = test system: adrenalectomized Sprague-Dawley rats; assay: Systemic glucocorticoid activity in the adrenalectomized rat, oral; type: in vivo; set-up: Liver glycogen: unit not given here; conditions: five consecutive days; for Liver glycogen: control 1.82±0.03; for Thymus weights: control 638±50
Procedure: A solution of the compound of Formula I in ethanolcottonseed oil (1:9, v/v) was administered orally to adrenalectomized Sprague-Dawley rats having a mean initial body weight of 188 g. (10 rats per group) for five consecutive days. Adrenalectomized rats receiving vehicle alone served as controls. Seven hours after the final medication the rats were killed and the thymus glands were excised and weighed. A portion of the liver was excised, frozen and digested in hot aqueous potassium hydroxide (30%). Liver glycogen was then determined. In this test the compound of Formula I caused thymolysis and liver glycogen deposition. The thymus weights at doses of 10 and 30 mg./kg. were 359±31 and 167±20 mg., respectively,in the medicated rats compared with 638±50 mg. in the control rats.

[5] = test system: hair growth on backs of male adrenalectomized Sprague-Dawley rats; assay: Reduction in hair growth in male adrenalectomized rats, topical (Table VII); type: in vivo; conditions: 0.1% solution topical
Source text: Hair was clipped from the backs of male Sprague-Dawley rats, having a mean body weight of 300 g., three weeks after adrenalectomy. The clipped area (4 cm.×4 cm.) was medicated with approximately 500 microliters of 0.1% solution of the compound of Formula I, or hydrocortisone or 500 microliters of ethanol alone for a two-week pretreatment period. The clipped area was then depilated and the medication with either solution or ethanol alone was continued for 4 weeks. The density of hair growth was scored visually at weekly intervals and at termination of the experiment on a scale of 0 to 4 (0, no hair growth; 4, complete hair regrowth). Skinfold thickness was also measured using a micrometer at the end of the experiment, which was conducted blind.

[6] = test system: androgen-stimulated flank organ; assay: Related experiment: androgen-stimulated flank organ in mature female and castrated immature male hamsters; type: in vivo; conditions: 5 to 25 micrograms per flank organ
Source text: As shown by Table I the diameters and the wet weights of the flank organs were reduced at a dose of 5 micrograms per flank organ per day.

[7] = 2.5 mg/kg/day sc for 14 days with testosterone propionate 0.4 mg/kg/day
[8] = 5 mg/kg/day sc for 14 days with testosterone propionate 0.4 mg/kg/day
[9] = after depilation, median score, scale 0 to 4, n=12

Question: How did the “Final Body Weight” value [1, 7] turn out when CC#C[C@]1(O)CC[C@H]2[C@@H]3C[C@H](C)C4=Cc5[nH]ncc5C[C@]4(C)[C@H]3CC[C@@]21C [Compound of Formula I, 17β-Hydroxy-6α-methyl-17α-propynyl-4-androsteno[3,2-c]-pyrazole] was run?
Answer: The value was 99.

Question: And the “Flank Organ Diameter” value [1, 7]?
Answer: Its value is 4.0 mm.

Question: What about the “Flank Organ Wet Weight” value [1, 7] of the same compound?
Answer: Its value is 19.5 mg.

Question: What about the “Organ Weights: Adrenals” value [1, 7] of the same compound?
Answer: The value was 12.7 mg.

Question: And the “Organ Weights: Seminal Vesicles” value [1, 7]?
Answer: Its value is 135 mg.

Question: What about the “Organ Weights: Thymus” value [1, 7] of the same compound?
Answer: The value was 28 mg.

Question: What about the “Final Body Weight” value [1, 8] of the same compound?
Answer: Its value is 93.

Question: What about the “Flank Organ Diameter” value [1, 8] of the same compound?
Answer: The value was 3.6 mm.

Question: And the “Flank Organ Wet Weight” value [1, 8]?
Answer: The value was 15.0 mg.

Question: What about the “Organ Weights: Adrenals” value [1, 8] of the same compound?
Answer: The value was 12.3 mg.

Question: And the “Organ Weights: Seminal Vesicles” value [1, 8]?
Answer: Its value is 107 mg.

Question: What about the “Organ Weights: Thymus” value [1, 8] of the same compound?
Answer: The value was 14 mg.

Question: And the “Hair weights (hair regrowth on clipped back area)” value ([2]; 0.02% in ethanol)?
Answer: Its value is 119 ± 15 mg.

Question: And the “Hair weights (hair regrowth on clipped back area)” value ([2]; 0.1% in ethanol)?
Answer: Its value is 109 ± 17 mg.

Question: What about the “Rate of Hair Growth, First Interval (Day 4-8)” value [3] of the same compound?
Answer: Its value is “.504 ± .014 mm/day”.

Question: What about the “Rate of Hair Growth, Second Interval (Day 9-12)” value [3] of the same compound?
Answer: The value was “.566 ± .014 mm/day”.

Question: What about the Liver glycogen ([4]; 10 mg./kg. oral) of the same compound?
Answer: Its Liver glycogen is 5.7±1.1.

Question: What about the Thymus weights ([4]; 10 mg./kg. oral) of the same compound?
Answer: The Thymus weights was 359 ± 31 mg.

Question: And the Liver glycogen ([4]; 30 mg./kg. oral)?
Answer: Its Liver glycogen is 10.9±1.2.

Question: And the Thymus weights ([4]; 30 mg./kg. oral)?
Answer: Its Thymus weights is 167 ± 20 mg.

Question: And the “Hair Growth Score, Treatment week 1” value [5, 9]?
Answer: The value was 0.

Question: What about the “Hair Growth Score, Treatment week 2” value [5, 9] of the same compound?
Answer: Its value is 0.

Question: What about the “Hair Growth Score, Treatment week 3” value [5, 9] of the same compound?
Answer: Its value is “.5”.

Question: And the “Hair Growth Score, Treatment week 4” value [5, 9]?
Answer: Its value is 1.

Question: What about the “Skinfold Thickness, Treatment week 4” value ([5]; mean, n=12, vehicle 2.51) of the same compound?
Answer: The value was 1.82 mm.

Question: And the “Hair Growth Score, Pretreatment week 1” value ([5]; median score, scale 0 to 4 (0 no hair growth, 4 complete regrowth), n=12)?
Answer: The value was 1.

Question: And the “Hair Growth Score, Pretreatment week 2” value ([5]; median score, scale 0 to 4, n=12)?
Answer: Its value is 2.5.

Question: What about the “Skin thickness compared with hydrocortisone-treated rats” value ([5]; p<0.02) of the same compound?
Answer: Its value is “thinner”.

Question: What about the “Inhibition of androgen-stimulated flank organ parameters” value [6] of the same compound?
Answer: The value was “effective inhibitor of androgen-stimulated flank organ parameters”.

Question: And the Systemic effects [6]?
Answer: The Systemic effects was “without any systemic effects”.

— patent publication US4269831A, “Topical dermatological method of use of an androstenopyrazole” (priority 1979, dated 1981)
